IC50 data for 27 compounds are collected here from patent US20230096028A1, “BICYCLIC HETEROCYCLYL COMPOUNDS AND USES THEREOF” (Revolution Medicines, Inc., priority 2019, published 2023).

Test [1] deals with PC-9 cells (EGFR Ex19Del). As to the kind of experiment: Potency Assay: pERK (SOS1 pERK IC50 Assay, AlphaLISA SureFire Ultra p-ERK1/2). It is filed as cell-based. To be noted: Homo sapiens, read-out: SOS1 pERK IC50. Here is the method: The purpose of this assay is to measure the ability of test compounds to inhibit SOS1 function in cells. SOS1 activates RAS proteins by catalyzing the conversion of RAS GDP to RAS GTP in response to receptor tyrosine kinase activation. […] The procedure described below measures the level of cellular pERK in response to test compounds in PC-9 cells (EGFR Ex19Del).
PC-9 cells were grown and maintained using media and procedures recommended by the ATCC. On the day prior to compound addition, cells were plated in 384-well cell culture plates (40 μL/well) and grown overnight in a 37° C., 5% CO2 incubator. Test compounds were prepared in 10, 3-fold dilutions in DMSO, with a top concentration of 10 mM. On the day of the assay, 40 nL of test compound was added to each well of cell culture plate using an Echo550 liquid handler (LabCyte). Concentrations of test compound were tested in duplicate with highest test concentration being 10 μM. After compound addition, cells were incubated for 1 hour at 37° C., 5% CO2. Following incubation, culture medium was removed and cells were washed once with phosphate buffered saline.
Cellular pERK level was determined using the AlphaLISA SureFire Ultra p-ERK1/2 Assay Kit (PerkinElmer). Cells were lysed in 25 μL lysis buffer, with shaking at 600 RPM at room temperature for 15 minutes. Lysate (10 μL) was transferred to a 384-well Opti-plate (PerkinElmer) and 5 μL acceptor mix was added. The plate was centrifuged at 1000 RPM for 1 minute, and incubated in the dark for 2 hours. Following this incubation, 5 μL of donor mix was added, the plate was sealed and centrifuged at 1000 RPM for 1 minute, and the mixture was incubated for 2 hours at room temperature. Signal was read on an Envision plate reader (PerkinElmer) using standard AlphaLISA settings. Analysis of raw data was carried out in Excel (Microsoft) and Prism (GraphPad). Signal was plotted vs. the decadal logarithm of compound concentration, and IC50 was determined by fitting a 4-parameter sigmoidal concentration response model.
(In Alpha technology, singlet oxygen from a donor bead excites a nearby acceptor bead.)

Test [2] has as its target T1, SOS1 catalytic domain (residues 564-1049) (Homo sapiens, UniProt Q07889).
T1 sequence (Q07889 564-1049): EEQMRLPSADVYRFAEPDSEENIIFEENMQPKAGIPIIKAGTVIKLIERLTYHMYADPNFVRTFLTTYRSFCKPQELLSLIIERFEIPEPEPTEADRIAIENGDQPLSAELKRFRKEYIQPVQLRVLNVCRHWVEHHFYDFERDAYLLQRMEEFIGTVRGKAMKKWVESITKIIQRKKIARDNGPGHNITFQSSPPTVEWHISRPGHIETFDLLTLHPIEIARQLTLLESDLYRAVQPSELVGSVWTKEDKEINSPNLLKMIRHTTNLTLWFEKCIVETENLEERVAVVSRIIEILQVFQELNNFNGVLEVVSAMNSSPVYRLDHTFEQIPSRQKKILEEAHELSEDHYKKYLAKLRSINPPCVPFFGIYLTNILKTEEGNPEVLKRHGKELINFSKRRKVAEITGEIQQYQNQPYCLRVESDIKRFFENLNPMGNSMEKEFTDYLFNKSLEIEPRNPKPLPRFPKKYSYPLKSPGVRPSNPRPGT
Briefly: Mode of Action Assay: inhibition of SOS1 nucleotide exchange activity (SOS1 TR-FRET IC50 Assay). For orientation: In TR-FRET formats the signal depends on donor and acceptor labels being close together.
Experimental: The purpose of this assay was to characterize the inhibitory activity of compounds on SOS1 nucleotide exchange of KRAS. Data was reported as IC50 values based on the TR-FRET signal.
Note—the following protocol describes a procedure for monitoring the inhibition of SOS1 nucleotide exchange activity of wild-type KRAS in response to a compound of the invention.
The SOS1/compound mixture was incubated at room temperature with constant mixing on an orbital shaker for 20 minutes to allow the reaction to reach equilibrium. […] This mixture was prepared immediately before addition to the SOS1/compound mixture to prevent intrinsic nucleotide exchange. Then 5 μL of the pre-incubated SOS1/compound mixture and 7.5 μL of the KRAS mixture were added sequentially in a 384-well low volume black round bottom plate and incubated at room temperature with constant shaking for 30 minutes. Time-resolved fluorescence was measured on a PerkinElmer Envision plate reader.
Three replicates were performed for each compound. Data were normalized by the following: (Positive control−Sample signal)/(Positive control−negative control)*100. The data were fit using a four-parameter logistic fit.

Where [3] appears, read: PC-9 cells (EGFR Ex19Del), 1 hour incubation, AlphaLISA p-ERK1/2.

Broadly, the pIC50 is −log10 of the IC50, conventionally taken in molar units.

pIC50: −log10 of the molar value. Like-named read-outs stand apart in the source and are kept apart here. A value given as a limit tells only on which side of the number the result lay.

For the compound `C[C@@H](Nc1nc(Cl)nc2c1CN(C(=O)C1CCN(C)CC1)C2)c1cc(N)cc(C(F)(F)F)c1` [Example 58, [4-[[(1R)-1-[3-amino-5-(trifluoromethyl)phenyl]ethyl]amino]-2-chloro-5,7-dihydropyrrolo[3,4-d]pyrimidin-6-yl]-(1-methyl-4-piperidyl)methanone], the pIC50 was greater than 6.00 in test [1] (PC-9, 1 h) and greater than 6.00 in test [2].

As to `COCC1(C(=O)N2CCc3nc(Cl)nc(N[C@H](C)c4cc(N)cc(C(F)(F)F)c4)c3C2)CCC1` [Example 204], the pIC50 in test [1] (setting [3]) was less than 6.00; in test [2], greater than 6.00.

With `C[C@@H](Nc1nc(Cl)nc2c1CN(C(=O)[C@@]13CCC[C@@H]1OCC3)CC2)c1cc(N)cc(C(F)(F)F)c1` [Example 216], the pIC50 in test [1] (setting [3]) and in test [2] was less than 6.00 each time.

Consider `CC(Nc1nc(Cl)nc2c1CN(C(=O)N1CCOCC1)C2)c1cccc(C2CC2)c1` (stereo not drawn) [Example 534, [2-chloro-4-[1-(3-cyclopropylphenyl)ethylamino]-5,7-dihydropyrrolo[3,4-d]pyrimidin-6-yl]-morpholino-methanone], for which the pIC50 in test [1] (PC-9, 1 h) is less than 6.00; in test [2] it was less than 6.00.

Take `C[C@@H](Nc1nc(Cl)nc2c1CN(C(=O)c1cncc(N3CCOCC3)n1)CC2)c1cc(N)cc(C(F)(F)F)c1` [Example 243]: the pIC50 in test [1] (setting [3]) and in test [2] was less than 6.00 throughout.

With `C[C@@H](Nc1nc(Cl)nc2c1CN(C(=O)C13COC(CCO1)C3)CC2)c1cc(N)cc(C(F)(F)F)c1` (stereo partly drawn) [Example 220], the pIC50 in test [1] (setting [3]) and in test [2] was less than 6.00 throughout.

Consider `C[C@@H](Nc1ncnc2c1CN(CC1CCOC1)C2)c1cc(N)cc(C(F)(F)F)c1` (stereo partly drawn) [Example 54, N-[(1R)-1-[3-amino-5-(trifluoromethyl)phenyl]ethyl]-6-(tetrahydrofuran-3-ylmethyl)-5,7-dihydropyrrolo[3,4-d]pyrimidin-4-amine], for which the pIC50 in test [1] (setting [3]) and in test [2] was less than 6.00 in each case.

Regarding `C[C@@H](Nc1nc(Cl)nc2c1CN(C(=O)c1cccc(Cl)n1)CC2)c1cc(N)cc(C(F)(F)F)c1` [Example 252], the pIC50 in test [1] (setting [3]) and in test [2] was less than 6.00 in each case.

Regarding `CC(Nc1nc(Cl)nc2c1CN(C(=O)N1CCOCC1)C2)c1cccc2c1C[C@@H](CO)C2` (stereo in doubt) [Example 465, (2-chloro-4-(((R)-1-((S)-2-(hydroxymethyl)-2,3-dihydro-1H-inden-4-yl)ethyl)amino)-5,7-dihydro-6H-pyrrolo[3,4-d]pyrimidin-6-yl)(morpholino)methanone], the pIC50 in test [1] (setting [3]) and in test [2] was less than 6.00 each time.

Consider `COc1c(C(F)F)cccc1C(C)Nc1nc(Cl)nc2c1CN(C(=O)N1CCOCC1)C2` (stereo not drawn) [Example 494], for which the pIC50 in test [1] (setting [3]) and in test [2] was less than 6.00 each time.

Consider `COCC1(C(=O)N2CCc3nc(Cl)nc(N[C@H](C)c4cc(N)cc(C(F)(F)F)c4)c3C2)CC1` [Example 213], for which the pIC50 in test [1] (setting [3]) and in test [2] was less than 6.00 throughout.

Take `COc1ccc(C(=O)N2CCc3nc(Cl)nc(N[C@H](C)c4cc(N)cc(C(F)(F)F)c4)c3C2)nc1` [Example 245]: the pIC50 in test [1] (setting [3]) and in test [2] was less than 6.00 throughout.

Turning to `CC(O)c1cccc(C(C)Nc2ncnc3c2CN(C(=O)N2CCOCC2)C3)c1` (stereo not drawn) [Example 516], the pIC50 in test [1] (setting [3]) and in test [2] was less than 6.00 in each case.

For the compound `CC(Nc1nc(Cl)nc2c1CN(C(=O)N1CCOCC1)C2)c1cccc(C2(F)CNC2)c1` (stereo not drawn) [Example 517, [2-chloro-4-[1-[3-(3-fluoroazetidin-3-yl)phenyl]ethylamino]-5,7-dihydropyrrolo[3,4-d]pyrimidin-6-yl]-morpholino-methanone], the pIC50 in test [1] (PC-9, 1 h) is less than 6.00; in test [2] it was greater than 6.00.

In the case of `C[C@@H](Nc1nc(Cl)nc2c1CN(C(=O)C1CCCN1c1ncccn1)CC2)c1cc(N)cc(C(F)(F)F)c1` (stereo partly drawn) [Example 200], the pIC50 in test [1] (setting [3]) and in test [2] was less than 6.00 each time.

As to `COC1(C(=O)N2Cc3nc(Cl)nc(N[C@H](C)c4cccc(C(F)(F)CO)c4)c3C2)CN(C2COC2)C1` [Example 267], the pIC50 in test [1] (setting [3]) and in test [2] was greater than 6.00 each time.

With `C[C@@H](Nc1nc(Cl)nc2c1CN(C(=O)N1CCNc3ccccc31)C2)c1cccc(C(F)(F)F)c1` [Example 372], the pIC50 in test [1] (setting [3]) and in test [2] was greater than 6.00 throughout.

`C[C@@H](Nc1nc(Cl)nc2c1CN([C@H]1CC[C@H](C(=O)N(C)C)CC1)C2)c1cc(N)cc(C(F)(F)F)c1` [Example 57, 4-[4-[[(1R)-1-[3-amino-5-(trifluoromethyl)phenyl]ethyl]amino]-2-chloro-5,7-dihydropyrrolo[3,4-d]pyrimidin-6-yl]-N,N-dimethyl-cyclohexanecarboxamide]: the pIC50 in test [1] (setting [3]) and in test [2] was less than 6.00 throughout.

Consider `C[C@@H](Nc1nc(Cl)nc2c1CN(C(=O)C13OCCCC1C3(F)F)CC2)c1cc(N)cc(C(F)(F)F)c1` (stereo partly drawn) [Example 214], for which the pIC50 in test [1] (setting [3]) and in test [2] was less than 6.00 in each case.

As to `CC(Nc1nc(Cl)nc2c1CN(C(=O)N1CCOCC1)C2)c1cccc(S(C)(=O)=O)c1` (stereo not drawn) [Example 497], the pIC50 in test [1] (setting [3]) and in test [2] was less than 6.00 throughout.

With `Cc1nc2c(c(N[C@H](C)c3cc(N)cc(C(F)(F)F)c3)n1)CCN(C(=O)N1CCOCC1)CC2` [Example 112, N-[(1R)-1-[3-amino-5-(trifluoromethyl)phenyl]ethyl]-2-methyl-7-(morpholine-4-carbonyl)-5H,6H,7H,8H,9H-pyrimido[4,5-d]-azepin-4-amine], the pIC50 in test [1] (setting [3]) and in test [2] was less than 6.00 each time.

Regarding `C[C@@H](Nc1nc(Cl)nc2c1CN(C(=O)N1CCOCC1)C2)c1cccc(N2CC(O)C2)c1` [Example 518, [2-chloro-4-[[(1R)-1-[3-(3-hydroxyazetidin-1-yl)phenyl]ethyl]amino]-5,7-dihydropyrrolo[3,4-d]pyrimidin-6-yl]-morpholino-methanone], the results for the pIC50 in test [1] (setting [3]) and in test [2] were less than 6.00 and greater than 6.00, respectively.

With `COCC(F)(F)c1cccc([C@@H](C)Nc2nc(Cl)nc3c2CN(C(=O)C2(OC)CCOCC2)C3)c1` [Example 536, [2-chloro-4-[[(1R)-1-[3-(1,1-difluoro-2-methoxy-ethyl)phenyl]ethyl]amino]-5,7-dihydropyrrolo[3,4-d]pyrimidin-6-yl]-(4-methoxytetrahydropyran-4-yl)methanone], the pIC50 in test [1] (setting [3]) and in test [2] was greater than 6.00 in each case.

With `CC(Nc1nc(Cl)nc2c1CN(C(=O)N1CCOCC1)C2)c1cccc(C(F)(F)CO)c1Cl` (stereo not drawn) [Example 506, 2-[2-chloro-3-(1-{[2-chloro-6-(morpholine-4-carbonyl)-5H,6H,7H-pyrrolo[3,4-d]pyrimidin-4-yl]amino}ethyl)phenyl]-2,2-difluoro-ethan-1-ol], the pIC50 in test [1] (setting [3]) and in test [2] was greater than 6.00 each time.

`C[C@@H](Nc1nc(Cl)nc2c1CN(C(=O)N1CCOCC1)C2)c1cccc(C(F)CO)c1` (stereo partly drawn) [Example 519, [2-chloro-4-[[(1R)-1-[3-(1-fluoro-2-hydroxy-ethyl)phenyl]ethyl]amino]-5,7-dihydropyrrolo[3,4-d]pyrimidin-6-yl]-morpholino-methanone]: the figures for the pIC50 in test [1] (setting [3]) and in test [2] were less than 6.00 and greater than 6.00, respectively.

Take `C[C@@H](Nc1nc(Cl)nc2c1CN(C(=O)N1CCOCC1)C2)c1csc(C(F)F)c1F` [Example 481, 2-chloro-N-[(1R)-1-[5-(difluoromethyl)-4-fluorothiophen-3-yl]ethyl]-6-(morpholine-4-carbonyl)-5H,6H,7H-pyrrolo[3,4-d]pyrimidin-4-amine]: the pIC50 in test [1] (PC-9, 1 h) is less than 6.00; in test [2], less than 6.00.

On to `C[C@@H](Nc1nc(Cl)nc2c1CN(C1CNC1)CC2)c1cccc(C(F)(F)F)c1` [Example 177, (R)-6-(azetidin-3-yl)-2-chloro-N-(1-(3-(trifluoromethyl)phenyl)ethyl)-5,6,7,8-tetrahydropyrido[4,3-d]pyrimidin-4-amine], for which the pIC50 in test [1] (setting [3]) was less than 6.00; in test [2], greater than 6.00.
